The subject of series [1] is L-1210 leukemia sensitive to c-DDP. The series is described as follows: second experiment: L-1210 leukemia sensitive to c-DDP, T/C, LTS, TOX. The series is classed as in vivo, mice. The settings on record: for T/C percentage: L-1210 leukemia (sensitive to Pt), c-DDP 7 mg/kg, BBR 1734 1.55 mg/kg, BBR 1735 8 mg/kg; for percentage of survivors at 60 days: 8.7.10^-6 mol/kg; for TOX (3): toxic deaths. From the text:
(§1) T/C percentage represents the percentual ratio of the mean survival time of the treated animals in comparison with the mean survival time of the control animals according to the methods described in "Anthracycline antibiotics" H. S. E. R Rhadem Edit., Academic Press, 1982.
(§2) LTS represents number of long-term (over 60 days) surviving animals with no pathologic episodes (i.e. cured animals).
(§3) (1) T/C: Mean survival time of treated mice/mean survival time of control
(untreated) mice × 100.
Mean survival time of treated mice is referred to dying animals only.
(2) LTS: Longterm survivors (>60 days), i.e. cured animals. Mean survival
(§4) (3) TOX: Toxic deaths are referred to animals dead before control animals
(§5) or to animals showing macroscopic toxic symptoms without tumor.
The data reported in Table 2 are the means of two subsequent experiments.

For the next series, the system named is L-1210 leukemia. As to the kind of experiment: first experiment: L-1210 leukemia in mice, T/C percentage and long term survival. It is filed as in vivo. The settings on record: for Survival after 60 days: survivors/animals; for antitumor activity (in words): versus c-DDP and ligand alone. On the procedure: Pt(DMSO)Cl2 ].2HCl.H2 O (coded BBR 1651), water soluble, and cis-[1,4-bis-[2-(2-hydroxyethylamino)ethylamino]-5,8-dihydroxy-9,10-anthracenedione.PtCl2 ].2HCl.H2 O (coded BBR 1734) are tested in comparison with equimolecular dosages of 1,4-bis-[2-(2-hydroxyethylamino)ethylamino]-5,8-dihydroxy-9,10-anthracenedione (DHAQ.2HCl) and with c-DDP dosed at 7 mg/kg, against L-1210 leukemia in mice. Groups of 10 animals, treated with intraperitoneal injections of […] L-1210 cells, have been used at each dosage level, evaluating T/C percentage and long term survival, i.e. more than sixty days.
as §1, §2
A percentage of T/C over 120 indicates antitumoral activity; a percentage of T/C under 85 indicates toxicity.

Series [2] in a line: body weight, kidney weight and ureic nitrogen (nephrotoxicity) at LD50 doses. The series is classed as in vivo, mouse. The settings on record: i.v.; for general toxicity / body weight (in words) / renal toxicity (in words): LD50 doses; for % Δ of the body weight / Final body weight / Kidney weight / Kidney weight g/100 of body weight / Initial body weight / Ureic Nitrogen: dose corresponding to respective LD50; for Initial body weight: before treatment; for Ureic Nitrogen: urea content. On the procedure: The percent decrease of the body weight, the kidney weight and the ureic nitrogen excretion were determined for each treated group. The increase of kidney weight and the increase of ureic plasma content were assumed as nephrotoxic index of the compounds (see for example O. Tofanetti et al., "Tumori", 69, 105, 1983).

Series [3] in a line: Acute toxicity (LD50) in mouse. The series is classed as in vivo. The settings on record: intraperitoneal route.
The test system of series [4] is c-DDP resistant L-1210 leukemia. The series is described as follows: c-DDP resistant L-1210 leukemia, T/C, LTS, TOX. It is filed as in vivo, mice. To be noted: for TOX (3): toxic deaths.
Description: as §1, §3
(untreated) mice × 100. Mean survival time of treated mice is
referred to dying animals only. N.ev.: not evaluable as consequence of th
(2) LTS: Longterms survivors (>30 days), i.e. cured animals.
as §4, §5

The mark [5] stands for this setting: 1.93 × 10^-6 moles/kg (BBR 1734 1.55, BBR 1651 1.85, DHAQ.2HCl 1.00 mg/kg).
The mark [6] stands for this setting: 3.86 × 10^-6 moles/kg (BBR 1734 3.10, BBR 1651 3.70, DHAQ.2HCl 2.00 mg/kg).
Where [7] appears, read: 7.73 × 10^-6 moles/kg (BBR 1734 6.20, BBR 1651 7.40, DHAQ.2HCl 4.00 mg/kg).
Where [8] appears, read: 1.93 × 10^-6 moles/kg (DHAQ.2HCl 1.0, BBR 1651 1.85 mg/kg).
Where [9] appears, read: 3.86 × 10^-6 moles/kg (DHAQ.2HCl 2.0, BBR 1651 3.7 mg/kg).
Setting [10] is: 7.73-8.68 × 10^-6 moles/kg (DHAQ.2HCl 4.0-4.5, BBR 1651 7.4-8.32 mg/kg).
Where [11] appears, read: 12.93 × 10^-6 moles/kg (DHAQ.2HCl 6.7, BBR 1651 12.40 mg/kg).
[12] abbreviates: 19.3 × 10^-6 moles/kg (DHAQ.2HCl 10.0, BBR 1651 18.5 mg/kg).
Setting [13] is: 19.3 × 10^-6/kg (BBR 1651 18.5 mg/kg).
Where [14] appears, read: 28.95 × 10^-6/kg (BBR 1651 27.75 mg/kg).
[15] abbreviates: 5.79 × 10^-6/kg (DHAQ-2HCl 3.0 mg/kg).
Where [16] appears, read: 8.68 × 10^-6/kg (DHAQ-2HCl 4.5 mg/kg).

As for `Cl.Cl.O.O=C1c2c(O)ccc(O)c2C(=O)c2c3ccc(c21)NCC[NH+](CCO)[Pt-2]([Cl])([Cl])[NH+](CCO)CCN3` (stereo not drawn) [BBR 1734, cis-[1,4-bis-[2-(2-hydroxyethylamino)ethylamino]-5,8-dihydroxy-9,10-anthracenedione.PtCl2].2HCl.H2 O], the T/C percentage in series [1] is around 200. Besides, in the series on L-1210 leukemia (setting [5]), the “% T/C” value is recorded as 200% and the “Survival after 60 days” value is recorded as 0/10. In the series on L-1210 leukemia (setting [6]), the “% T/C” value came to 224% and the “Survival after 60 days” value is recorded as 1/10. The “Survival after 60 days” value with L-1210 leukemia (setting [7]) is listed as 7/10. Further, the “antitumor activity (in words)” value with L-1210 leukemia was “good activities with better results than those obtained using the known c-DDP and the aminoanthracenedione ligand alone”. In addition, in series [2], the “general toxicity / body weight (in words)” value is listed as “general toxicity as indicated by the decrease of the body weight”, the “renal toxicity (in words)” value is “do not impair the renal excretory function and/or change the relative kidney weight”, the “% Δ of the body weight” value is on record as -20.4% and the Final body weight is reported as 28.4 ± 0.775. In series [2], the Kidney weight is reported as 0.362 ± 0.012, the “Kidney weight g/100 of body weight” value is recorded as 1.282 ± 0.036 g/100 of body weight, the Initial body weight came out at 34.2 ± 0.731 and the “Ureic Nitrogen” value is recorded as 14.85 ± 0.866 100 mg/ml of plasma. For the same molecule, the “Acute toxicity (LD50)” value in series [3] amounted to 22.9 mg/kg.

In the case of `Cl.Cl.O.O=C1c2ccccc2C(=O)c2c3ccc(c21)NCC[NH+](CCO)[Pt-2]([Cl])([Cl])[NH+](CCO)CCN3` (stereo not drawn) [BBR 1735, cis-[1,4-bis-[2-(2-hydroxyethylamino-ethyl)-amino]-9,10-anthracenedione.PtCl2].2HCl.H2 O], the T/C percentage in series [1] is around 200. In addition, in series [2], the “general toxicity / body weight (in words)” value is “general toxicity as indicated by the decrease of the body weight”, the “renal toxicity (in words)” value is on record as “do not impair the renal excretory function and/or change the relative kidney weight”, the “% Δ of the body weight” value is -5.4% and the Final body weight turned out to be 33.1 ± 1.103. In addition, in series [2], the Kidney weight is 0.428 ± 0.02, the “Kidney weight g/100 of body weight” value is recorded as 1.293 ± 0.042 g/100 of body weight, the Initial body weight was determined as 34.9 ± 0.857 and the “Ureic Nitrogen” value is on record as 14.88 ± 0.565 100 mg/ml of plasma. Also, the “Acute toxicity (LD50)” value in series [3] is given as 30.0 mg/kg.

Regarding `CS(C)=O.CS(C)=O.Cl.Cl.O.O=C1c2c(O)ccc(O)c2C(=O)c2c(NCCNCCO)ccc(NCCNCCO)c21.[Cl][Pt][Cl]` [BBR 1651, cis-[1,4-bis-[2-(2-hydroxyethylamino)ethylamino]-5,8-dihydroxy-9,10-anthracenedione. Pt(DMSO)Cl2].2HCl.H2 O], the T/C in series [1] (1.39.10^-6 g/atom of Pt) turned out to be 200. In addition, the “LTS (2) (>60 days)” value in series [1] (setting [8]) is on record as 0/10; in series [1] (setting [9]) it was 1/10; in series [1] (setting [10]), 15/20; in series [1] (setting [11]) it was 9/10; in series [1] (setting [12]), 9/10. The “T/C (1) %” value in series [1] (setting [8]) amounted to 200%; in series [1] (setting [9]), 221%; in series [4] (setting [13]), 186%. For the same molecule, the “percentage of survivors at 60 days” value in series [1] is listed as 90%. Also, the “longterms survivors (>60 days; i.e. cured animals)” value in series [1] (equal platinum content) stood at 9. Also, the “increase of the dead animals before control animals” value in series [1] (in words) was “did not cause any increase of the dead animals before control animals”. Moreover, the “activity compared with c-DDP (in words)” value in series [1] (mouse, in vivo) is given as “extremely more active than the known c-DDP”. In addition, the “TOX (3)” value in series [1] (setting [8]) is 0/10; in series [1] (setting [9]) it was 0/10; in series [1] (setting [10]), 0/20; in series [1] (setting [11]), 0/10; in series [4] (setting [13]) it was 0/10; in series [4] (setting [14]), 1/10. The “% T/C” value in the series on L-1210 leukemia (setting [5]) amounted to 195%; with L-1210 leukemia (setting [6]) it was 220%. Besides, the “Survival after 60 days” value in the series on L-1210 leukemia (setting [5]) was 0/10; in the series with L-1210 leukemia (setting [6]), 1/10; in the series on L-1210 leukemia (setting [7]), 7/10. In addition, the “antitumor activity (in words)” value in the series on L-1210 leukemia is “good activities with better results than those obtained using the known c-DDP and the aminoanthracenedione ligand alone”. In addition, the results for the “LTS (2) (>30 days)” value in series [4] (setting [13]) and in series [4] (setting [14]) were 3/10 and 4/10, respectively. In addition, the “activity (in words)” value in series [4] (animals injected with cis-platin resistant leukemia cells) is on record as “active drug”.

For the molecule `O=C1c2c(O)ccc(O)c2C(=O)c2c(NCCNCCO)ccc(NCCNCCO)c21` [DHAQ.2HCl, 1,4-bis-[2-(2-hydroxyethylamino)ethylamino]-5,8-dihydroxy-9,10-anthracenedione], the “LTS (2) (>60 days)” value in series [1] (setting [8]) is on record as 0/10; in series [1] (setting [9]) it was 0/10; in series [1] (setting [10]) it was 8/20; in series [1] (setting [11]) it was 4/10; in series [1] (setting [12]), 1/10. Besides, the “T/C (1) %” value in series [1] (setting [8]) is reported as 185%; in series [1] (setting [9]), 214%; in series [1] (7.73-8.68 × 10^-6 moles/kg (DHAQ.2HCl 4.0-4.5 mg/kg), range in parenthesis) it was 302 (235-369) %; in series [1] (12.93 × 10^-6 moles/kg (DHAQ.2HCl 6.7 mg/kg)), 262%; in series [1] (19.3 × 10^-6 moles/kg (DHAQ.2HCl 10.0 mg/kg)), 231%; in series [4] (setting [15]), 145%. The “T/C (1) %” value in series [4] (setting [16]) is 168%. Besides, the “percentage of survivors at 60 days” value in series [1] is reported as 10%. The “increase of death rate in comparison with the control animals” value in series [1] (Higher doses of DHAQ) was “up to 90%”. For the same molecule, the “TOX (3)” value in series [1] (setting [8]) is 0/10; in series [1] (setting [9]), 0/10; in series [1] (setting [10]), 2/20; in series [1] (setting [11]), 5/10; in series [1] (setting [12]), 9/10; in series [4] (setting [15]), 0/10. Besides, the “TOX (3)” value in series [4] (setting [16]) is listed as 0/10. Further, the “% T/C” value in the series on L-1210 leukemia (setting [5]) is 185%; in the series with L-1210 leukemia (setting [6]), 214%; in the series on L-1210 leukemia (7.73 × 10^-6 moles/kg (DHAQ.2HCl 4.00 mg/kg)), 235%. Besides, the “Survival after 60 days” value in the series with L-1210 leukemia (setting [6]) was 0/10; with L-1210 leukemia (setting [7]), 2/10. Besides, the “LTS (2) (>30 days)” value in series [4] (setting [15]) was 1/10; in series [4] (setting [16]) it was 2/10.
